Tests used:
[1] = tested on: Dbi^+/+ and Dbi^−/− HCC cells; experiment: CCK-8 viability assay of primary HCC cells treated with ferroptosis inducers; format: cell-based, mouse; conditions: ferroptosis inducer combined with Dbi knockout; normalized to respective Dbi^+/+ and Dbi^−/− vehicle controls
Method: (FIG. 26A-FIG. 26D). Groups receiving ferroptosis inducers were normalized to their respective Dbi^+/+ and Dbi^−/− vehicle (Veh) treated control groups.
Proliferation assays. CCK-8 assays were performed with a commercial kit. For colony formation assays, HEPG-2 (NC, SH1, SH2, and SH3, 1000 cells/well), HUH-7 (NC, SH1, SH2, and SH3, 1000 cells/well) and Hep55.1C (NC, SH1, SH2, and SH3, 500 cells/well) cancer cells were seeded into 6-well plates in 2 mL medium with 10% FBS. The medium was changed every 3 days until control (NC) wells approached confluency, within 7-14 days. After gently washed twice with PBS, colonies were fixed with 4% paraformaldehyde for 30 min and stained with 0.2% crystal violet for 30 min at room temperature. The colony number (colonies >0.3 mm) was counted with isoftware. All experiments were performed in triplicates.
Six-well plates were coated with 2% FBS/PBS+0.1% laminin. HCC tumors were isolated from NASH-driven mouse model (WD+D-fructose+D-glucose in water+CCl4 administered to DBI^+/+ or DBI^−/− mice) and washed twice with ice-cold PBS. The tumor tissues were transferred to 10 cm plates, minced completely with a razor blade and then transferred to 15 mL falcon tubes. Ten mL 2 mg/mL collagenase dispase solution was added, the cells were incubated rotating for 30 min at 37° C. and were filtered through 100 μm meshes into 50 mL falcon tubes, before addition of 10 mL 2% FBS/PBS to wash the tissues. The samples were then filtered sequentially through 70 μm and 40 μm strainers, brought up to 15 mL volume and centrifuged again (room temperature (RT), 1000 rpm, 2 min). The cells were then resuspended in 5 mL of 1×red blood cell (RBC) lysis buffer, incubated on ice for 10 min before addition of 5 mL 2% FBS/PBS, followed by spinning (RT, 1000 rpm, 2 min). The washing step was repeated 2 times, and the cells were resuspended in culture medium (500 mL DMEM+10% FBS+1×ITS+20 μl EGF (1 μg/μl)+20 μl IGFII (0.2 μg/μl)), before seeding into 6-well plates.

TC1 NSCLC cells = experiment: Orthotopic TC1 Luc lung cancer model (bioluminescence imaging); format: in vivo, C57BL/6J mice; conditions: corticosterone in drinking water + OXA + anti-PD1
Method: TC-1—To establish the orthotopic TC1 model, wild type TC1 Luc cells (5×10^5 in 100 μL PBS) were intravenously injected to wild type C57BL/6J mice. Tumor incidence and development were monitored by in vivo photonic imaging of tumor cells' luciferase activity. About 7 days after injection, tumor incidence in the lung was detected at an exposure time of 4 min, and mice were randomized according to quantified tumor sizes and assigned to different groups for treatment as described below. Anti-DBI or isotype control antibody was intraperitoneally (i.p.) injected on day 9, at the dose of 2.5 mg/kg body weight, and on day 10, then maintained every other day until day 18. […]
Next, the positive effects of anti-ACBP/DBI mAb on chemo-immunotherapy in another model, namely non-small cell lung cancers (NSCLC) were confirmed. TC1 NSCLC cells expressing luciferase injected intravenously (i.v.) into syngeneic immunocompetent C57BL/6J mice form orthotopic lung cancers that can be monitored by bioluminescence imaging. […] From day 9 post-inoculation of TC1 cells, NSCLC-bearing mice were periodically i.p. injected with anti-ACBP/DBI mAb (or an isotype control mAb) and then were treated on day 11 post-inoculation with OXA (i.p. once) and anti-PD1 mAb (injected i.p. on days 19, 23 and 27 post-TC1 injection) (FIG. 4A) and tumor progression was determined by bioluminescence imaging (FIG. 4B). […]

[2] = tested on: MCA205 fibrosarcoma cells; experiment: Anti-tumor vaccination assay (MTX-treated MCA205 cells, rechallenge with live cells); format: in vivo, C57BL/6J mice; conditions: CORT in drinking water + vaccination with MTX-treated MCA205 cells
Method: Wild-type MCA205 cells were treated with MTX (4 μM) for 24 h. Then supernatants and detached cells were collected and centrifuged, and the pellet was further washed with ice-cold PBS. 2×10^6 cells in 100 μl PBS were s.c. injected to the left flank of immunocompetent C57BL/6J mice (day −7). PBS was injected as a negative control. One week later, all mice were confirmed tumor-free in the vaccination flank and living cancer cells (2×10^5 cells per mouse for MCA205 cells) were injected in the right flank of vaccinated mice (day 0). Corticosterone and neutralizing anti-DBI monoclonal antibody were continually administrated throughout the experiment. Tumor growth was regularly monitored for the following weeks.
After the first week of treatment, the animals were subcutaneously (s.c.) injected with mitoxantrone (MTX)-treated MCA205 fibrosarcoma cells, knowing that MTX-induces ICD and that MTX-treated cancer cells induce a protective anti-cancer immune response that suppresses, delays or reduces the growth of tumors that would grow in naïve mice after injection of live, untreated MCA205 fibrosarcoma cell. [Panaretakis T. et al., Mechanisms of pre-apoptotic calreticulin exposure in immunogenic cell death, EMNO J, 2009, 28 (5), pp. 578-590.]

[3] = tested on: E0771 breast cancer cells; experiment: Subcutaneous E0771 breast cancer model with anti-PD1 immunotherapy
Method: E0771—For the establishment of syngeneic solid tumors, C57BL/6J mice (8-weeks-old female) were injected subcutaneously (s.c.) with 5×10^5 wild type E0771 in the right lower quadrant of the abdomen alongside of the mammary gland (close to the orthotopic site). Approximately 7 days after injection, tumor growth was monitored with an electronic caliper and mice were assigned to different groups. From day 8, mice were treated with a neutralizing anti-DBI monoclonal antibody (5 mg/kg) or its isotype (IgG2A, 5 mg/kg) every two days. At the same time, free corticosterone (Sigma-Aldrich) was added to the drinking water (0.1 mg/ml; water/ethanol 0.66%). Anti-PD1 monoclonal antibody (αPD1; 10 mg/kg) was injected at days 12, 15, 18 and 21. Tumor growth was monitored routinely with an electronic caliper.
For tumor growth experiments, longitudinal analyses were performed by linear mixed effect modeling of tumor sizes. […]
C57BL/6J mice were inoculated subcutaneously (s.c.) with syngeneic E0771 breast cancer cells. Six days later treatment of corticosterone (CORT or as a control with vehicle only, 0.66% ethanol, which was administered in the drinking water) and anti-ACBP/DBI mAb (or the isotype control mAb, both injected i.p. three times per week) was initiated and tumor growth was monitored over several weeks. […]

Q: CCCCC/C=C\C/C=C\CCCCCCCC(=O)O [LA, linoleic acid] was tested. Which “viability (CCK-8)” value [1] did it give?
A: particularly vulnerable to losing their viability

Q: How did the “viability (CCK-8)” value [1] turn out when COC(=O)c1ccc([C@@H]2c3[nH]c4ccccc4c3C[C@@H](C(=O)OC)N2C(=O)CCl)cc1 [RSL3] was run?
A: particularly vulnerable to losing their viability

Q: Which results are given for C[C@]12C[C@H](O)[C@H]3[C@@H](CCC4=CC(=O)CC[C@@]43C)[C@@H]1CC[C@@H]2C(=O)CO [corticosterone]?
A: chemo-immunotherapeutic effect (tumor size by bioluminescence) (TC1 NSCLC cells): strongly interfered; vaccination effect [2]: reduced this vaccination effect; tumor growth (effect of anti-PD1) ([3]; CORT in drinking water + anti-PD1): lost; animal survival (efficacy of anti-PD1) ([3]; corticotherapy + anti-PD1): loss

Q: CC(C)Oc1ccc(C(=O)Cn2ccnc2)cc1-n1c(CN2CCN(C(=O)COc3ccc(Cl)cc3)CC2)nc2ccccc2c1=O [IKE, imidazole ketone erastin] was tested. Which “viability (CCK-8)” value [1] did it give?
A: particularly vulnerable to losing their viability
